Patent US11541051B2, “Compositions and methods for treating CDK4/6-mediated cancer” (Icahn School of Medicine at Mount Sinai, priority 2016, dated 2023)
“Also recorded” adds a separate entry of the source.

Experiments:
Assay type in all cases: cell-based
CDK4/6 [1] = assay: Western blot of CDK4, CDK6 and phospho-Rb in A375 melanoma cells treated with degraders (Example 12, FIGS. 12, 13, 16, 18); conditions: 24 h
Procedure: (§1) Breast cancer cell lines (MCF7, T47D, and ZR-75-1) and melanoma cell lines (A375, SK-MEL-2, SK-MEL-30, and WM1382) were cultured in the presence of DMEM or RPMI supplemented with 10% FBS in the presence of penicillin and streptomycin.
(§2) Protein concentrations were determined by BCA from cell lysates and equal amounts of protein are loaded to a Bis-Tris 4-12% gel. Gels were run at 80 V for 4 h using 1× running buffer (25 mM Tris, pH 8.3, […] glycine, 0.1% SDS). Proteins were transferred to a nitrocellulose membrane for 2 h at 100 V using transfer buffer (25 mM Tris, pH 8.3, […] glycine, 20% methanol). Ponceau S staining (0.1% Ponceau S, 1% acetic acid) was used to confirm transfer of proteins to the membrane followed by blocking of the membrane for 30 min at room temperature using blocking buffer (5% dry nonfat milk, 0.1% Tween, 0.02% sodium azide in TBS). The blocked membrane is incubated with primary antibodies (1:1000 dilution) in blocking buffer at 4° C. overnight. When primary phosphor-antibodies were used, then the membrane is incubated with 5% BSA instead of milk. The membrane was washed three times, 10 min each, with wash buffer (0.1% Tween in TBS) followed by incubation with secondary HRP conjugated antibody (1:5000 dilution) in 2.5% dry nonfat milk, 0.1% Tween in TBS for 1 h at room temperature. The membrane was washed three times, 10 min each, with wash buffer (0.1% Tween in TBS). Membranes are incubated with ECL for 1 min and proteins are detected after exposure to a blue autoradiographic film.
A375 melanoma cells (FIG. 13) were treated with 1 or 3 μM Ribociclib (RB), YX030-126, YX030-108, YX030-107, YX030-086, YX030-085 or XY028-133 for 24 h, then lysed and immunoblotted with antibodies to CDK4, CDK6, cyclin A, PLK1, phospho-Rb (pRb), and actin.
A375 melanoma cells (FIG. 16, panel A) were treated with 0.3 or 1 μM XY028-140, YX039-65, YX039-48, YX039-123, YX039-56, YX039-124 or YX039-147 for 24 h. A375 melanoma cells were treated with 1 or 3 μM XY028-140, YX039-56, YX039-65 or XY028-133 (FIG. 16, panel B). Cells were lysed and immunoblotted with antibodies to phospho-Rb (pRb), total Rb, PLK1, cyclin A, CDK4, CDK6, and actin.
A375 melanoma cells (FIG. 18) were treated with 1 or 3 μM XY028-133, YX044-18, YX044-22, XY028-140, YX044-19 or YX044-38 for 24 h, then lysed and immunoblotted with antibodies to phospho-Rb (pRb), total Rb, PLK1, cyclin A, CDK4, CDK6, and actin.

CDK4/6 [2] = target: T1, CDK4/6 (Homo sapiens, UniProt P11802); assay: Western blot of CDK4/6 and phospho-Rb in T47D breast cancer cells treated with degraders (Example 12, FIGS. 10 B, 17, 19); conditions: 24 h
T1 construct: endogenous in cells; host or cells: MCF7, T47D, ZR-75-1 (breast cancer); A375, SK-MEL-2, SK-MEL-30, WM1382 (melanoma)
Procedure: as §1, §2
(§3) MCF7 breast cancer cells were treated with 1 or 5 μM XY019-095, XY019-098, XY019-0100, XY019-105A, XY019-105B, XY019-106, or XY019-108 for 24 h, then lysed and immunoblotted with antibodies to CDK4, CDK6, and actin (FIG. 10, panel A). […] T47D breast cancer cells were treated with 0.1, 0.3, 1, 3, 10, or 30 μM XY019-106 for 24 h, then lysed and immunoblotted with antibodies to phospho-Rb (pRB), CDK4, and actin (FIG. 10, panel B).
(§4) T47D breast cancer cells (FIG. 17) were treated with 0.3 or 1 μM XY028-140, YX039-48, YX039-123, YX039-56, YX039-124, YX039-65, YX039-147 or YX039-74 for 24 h, then lysed and immunoblotted with antibodies to phospho-Rb (pRb), total Rb, PLK1, cyclin A, CDK4, CDK6, and actin.
(§5) T47D breast cancer cells (FIG. 19) were treated with 0.3 or 1 μM XY028-133, YX044-18, YX044-22, XY028-140, YX044-19 or YX044-38 for 24 h, then lysed and immunoblotted with antibodies to phospho-Rb (pRb), total Rb, PLK1, cyclin A, CDK4, CDK6, and actin.

CDK4/6 [3] = assay: as above; conditions: concentrations as high as 30 μM, 24 h
Procedure: as §1, §2, §3, §4, §5

CDK4/6 [4] = assay: Western blot of CDK4, CDK6 and phospho-Rb in SK-MEL-2 or A375 melanoma cells treated with degraders (Example 12, FIG. 11); conditions: SK-MEL-2 or A375 cells; 1 or 3 μM; 24 h
Procedure: as §1
as §2, with “The membrane was washed three times, 10 min each, with wash buffer (0.1% Tween in TBS) followed by incubation with secondary HRP conjugated antibody (1:5000 dilution) in 2.5% dry nonfat milk, 0.1% Tween in TBS for 1 h at room temperature. The membrane was washed three times, 10 min each, with wash buffer (0.1% Tween in TBS).” left out, “film. […]” for “film.”

CDK4/6 [5] = assay: Characterization of CDK4/6 degraders/disruptors in various breast cancer and melanoma cells (summary, Examples 12 and 13)
Procedure: Specific exemplary abemaciclib-, ribociclib-, and palbociclib-based CDK4/6 degraders/disruptors were characterized in various different breast cancer and melanoma cells (Examples 12 and 13, FIGS. 10-23). […] This efficacy in suppressing CDK4/6 expression and CDK4/6 activity correlated with efficacy in inhibiting cancer cell proliferation.
as §2

CDK4/6 [6] = assay: Western blot of CDK4 and CDK6 in MCF7 breast cancer cells treated with degraders (Example 12, FIG. 10 A); conditions: 1 or 5 μM, 24 h
Procedure: as §1, §2, §3

A375 melanoma cells [7] = assay: Crystal violet staining (clonogenic assay) of A375 melanoma cells (Example 13, FIG. 21); conditions: 0.03-3 μM, 11 days
Procedure: Cells were cultured for 7-11 days in the presence of different compounds. Media with compound was replenished every two days. At the end of the experiment, media was aspirated and viable cells were stained with 0.5% crystal violet dye.

A375 melanoma cells [8] = assay: Bright field imaging of A375 melanoma cell proliferation (Example 13, FIG. 20); conditions: 1 or 2 μM, 7 days
[9] = system: V5-tagged CDK4 or V5-tagged CDK6; assay: Western blot of V5-tagged CDK4 or CDK6 ectopically expressed in 293H cells (Example 8); conditions: 1, 3 or 10 μM, 24 h
Procedure: Protein concentrations were determined by BCA from cell lysates and equal amounts of protein are loaded to a Bis-Tris 4-12% gel. Gels were run at 80 V for 4 h using 1× running buffer (25 mM Tris, pH 8.3, 1.92 M glycine, 0.1% SDS). Proteins were transferred to a nitrocellulose membrane for 2 h at 100 V using transfer buffer (25 mM Tris, pH 8.3, 1.92 M glycine, 20% methanol). Ponceau S staining (0.1% Ponceau S, 1% acetic acid) was used to confirm transfer of proteins to the membrane followed by blocking of the membrane for 30 min at room temperature using blocking buffer (5% dry nonfat milk, 0.1% Tween, 0.02% sodium azide in TBS). The blocked membrane is incubated with primary antibodies (1:1000 dilution) in blocking buffer at 4° C. overnight. When primary phosphor-antibodies were used, then the membrane is incubated with 5% BSA instead of milk. The membrane was washed three times, 10 min each, with wash buffer (0.1% Tween in TBS) followed by incubation with secondary HRP conjugated antibody (1:5000 dilution) in 2.5% dry nonfat milk, 0.1% Tween in TBS for 1 h at room temperature. The membrane was washed three times, 10 min each, with wash buffer (0.1% Tween in TBS). Membranes are incubated with ECL for 1 min and proteins are detected after exposure to a blue autoradiographic film.

T1 sequence (P11802 2-303): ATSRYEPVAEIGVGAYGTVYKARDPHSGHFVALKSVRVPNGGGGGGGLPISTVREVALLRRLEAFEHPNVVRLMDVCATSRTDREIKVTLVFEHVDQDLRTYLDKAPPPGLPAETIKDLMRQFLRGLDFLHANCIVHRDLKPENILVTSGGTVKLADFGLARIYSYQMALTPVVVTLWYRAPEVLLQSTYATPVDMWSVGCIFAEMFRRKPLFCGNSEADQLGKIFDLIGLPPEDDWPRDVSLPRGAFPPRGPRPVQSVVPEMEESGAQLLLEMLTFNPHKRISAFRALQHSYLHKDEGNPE

concentrations with significant effects on CDK4 expression and Rb phosphorylation (CDK4/6 [2]) [µM]	SMILES	efficacy in inhibiting both CDK4/6 expression and CDK4/6 activity (decreased Rb phosphorylation) (CDK4/6 [1]; 1 or 3 μM)	suppression of CDK4 expression and inhibition of CDK4 activity (Rb phosphorylation) (CDK4/6 [2]; 0.1-30 μM)	inhibition of Rb phosphorylation at high concentrations (CDK4/6 [3])	efficacy in inhibiting both CDK4/6 expression and CDK4/6 activity (decreased Rb phosphorylation) (CDK4/6 [4])	suppression of both CDK4/6 expression and CDK4/6 activity (summary) (CDK4/6 [5])	suppression of CDK4/6 expression (CDK4/6 [6])	efficacy in inhibiting both CDK4/6 expression and CDK4/6 activity (decreased Rb phosphorylation) (CDK4/6 [1]; 0.3 or 1 μM (FIG. 16 A), 1 or 3 μM (FIG. 16 B))	inhibition of cancer cell proliferation compared with palbociclib (crystal violet staining) (A375 melanoma cells [7])	inhibition of cancer cell proliferation compared with palbociclib (bright field imaging) (A375 melanoma cells [8])	expression of V5-tagged CDK4 and CDK6 [9]
≥ 0.3	CC(=O)c1c(C)c2cnc(Nc3ccc(N4CCN(C(=O)CCCCCCC(=O)N[C@H](C(=O)N5C[C@H](O)C[C@H]5C(=O)NCc5ccc(-c6scnc6C)cc5)C(C)(C)C)CC4)cn3)nc2n(C2CCCC2)c1=O [XY019-106, (2S,4R)-1-((S)-2-(8-(4-(6-((6-acetyl-8-cyclopentyl-5-methyl-7-oxo-7,8-dihydropyrido[2,3-d]pyrimidin-2-yl)amino)pyridin-3-yl)piperazin-1-yl)-8-oxooctanamido)-3,3-dimethylbutanoyl)-4-hydroxy-N-(4-(4-methylthiazol-5-yl)benzyl)pyrrolidine-2-carboxamide]	efficacy of CDK4/6 degraders, particularly XY028-133, XY028-140, XY019-106 and XY028-003	both suppresses CDK4 expression and inhibit CDK4 activity	inhibited Rb phosphorylation even when administered at high concentrations	efficacy of CDK4/6 degraders/disruptors, particularly XY019-106 and XY028-003	especially effective in suppressing both CDK4/6 expression and CDK4/6 activity	especially effective in suppressing CDK4/6 expression even at 1 μM				
	CC(=O)c1c(C)c2cnc(Nc3ccc(N4CCN(C(=O)CCCCCC(=O)N[C@H](C(=O)N5C[C@H](O)C[C@H]5C(=O)NCc5ccc(-c6scnc6C)cc5)C(C)(C)C)CC4)cn3)nc2n(C2CCCC2)c1=O [XY028-133, (2S,4R)-1-((S)-2-(7-(4-(6-((6-acetyl-8-cyclopentyl-5-methyl-7-oxo-7,8-dihydropyrido[2,3-d]pyrimidin-2-yl)amino)pyridin-3-yl)piperazin-1-yl)-7-oxoheptanamido)-3,3-dimethylbutanoyl)-4-hydroxy-N-(4-(4-methylthiazol-5-yl)benzyl)pyrrolidine-2-carboxamide]	efficacy of CDK4/6 degraders, particularly XY028-133, XY028-140, XY019-106 and XY028-003; also recorded: efficacy of CDK4/6 degraders, particularly XY028-133 and YX044-18				especially effective in suppressing both CDK4/6 expression and CDK4/6 activity		efficacy of CDK4/6 degraders, particularly XY028-133	more effective in inhibiting cancer cell proliferation than palbociclib at 1 and 3 μM	more effective in inhibiting cancer cell proliferation than palbociclib at the same concentration	
	CN(C)C(=O)c1cc2cnc(Nc3ccc(N4CCNCC4)cn3)nc2n1C1CCCC1 [ribociclib]										upregulated the expression of V5-tagged CDK4 and CDK6
